Source: PMC3597730, “Novel Phenolic Inhibitors of Small/Intermediate-Conductance Ca^2+-Activated K^+ Channels, KCa3.1 and KCa2.3” (PLoS ONE, 2013)
Where “and” joins values, the source holds several entries; their conditions need not be identical. Equal entries are not always repeated. Entries after “also recorded” stand apart in the source; their conditions may differ. Where two headings read alike, the source gives them in different places.

Key:
hERG channels = tested on: T1, hERG channels; assay: Whole-cell patch-clamp of hERG tail currents in HEK293 cells; assay type: cell-based, human; conditions: 13b 1 µM; caffeic acid, flufenamic acid 10 µM (Table S1)
T1 construct: expressed in transfected cells; gift of Craig January, University of Wisconsin

hERG = tested on: T2, hERG; assay: as above; assay type: cell-based, human; conditions: human, HEK293 cells expressing hERG, pH 7.4, hERG
T2 construct: expressed in transfected cells; gift of Craig January, University of Wisconsin

hKCa2.3 [1] = molecular target: T3, hKCa2.3 (Homo sapiens, UniProt Q9UGI6); assay: Whole-cell patch-clamp of hKCa2.3 in COS7 cells; assay type: cell-based
T3 construct: expressed in transfected cells; host or cells: COS7

hKv1.2 = molecular target: T4, hKv1.2 (Homo sapiens, UniProt P16389); assay: Whole-cell patch-clamp of cloned hKv1.2; assay type: cell-based
T4 construct: expressed in transfected cells; host or cells: B82 murine fibroblasts (Methods)

[2] = tested on: mixed KCa3.1 and KCa2.3 currents in PCAEC; assay: Whole-cell patch-clamp of KCa currents in porcine coronary artery endothelial cells; assay type: cell-based
3T3 fibroblasts = assay: Cell proliferation assay (Janus B Green staining); assay type: cell-based, mouse; conditions: for change of proliferation vs. vehicle-treated controls: 3T3 cells
Experimental: Cell proliferation was spectrophotometrically assessed as described previously with some modifications. Briefly, 3T3 fibroblasts (1500 cells/well) were seeded in 96-well plates (TPP. Switzerland), cultured in DMEM containing 10% FCS (Lonza, Switzerland) with 13b or vehicle (DMSO), and formalin-fixed at days 0,1,2 and 3. To exclude the possibility that DMSO as vehicle affected the cell viability per se, final DMSO concentrations were the same for each concentration of 13b and the controls. Fixed cells were stained for 5 minutes with 50 ul/well of 0.3% Janus B Green dye (Acros Organics, Belgium) at room temperature with constant stirring followed by a de-staining step with water. Dye was eluted with 200 ul/well of 0.5 M HCl of hydrochloric acid and top-read measurements of absorbance were performed in a microplate reader (Sinergy HT, Biotek, USA) at 595 nm.

KCa1.1 = tested on: T5, KCa1.1; assay: Whole-cell patch-clamp of KCa1.1 in U251 glioblastoma cells; assay type: cell-based, human; conditions: for KCa1.1 effect (in words): U251 glioblastoma cells, 13b 1 µM, caffeic acid 10 µM
T5 construct: KCa1.1 in human U251 glioblastoma cells; endogenous in cells; host or cells: U251 glioblastoma cells

[3] = molecular target: T6, KCa3.1 channels in 3T3 fibroblasts (Mus musculus, UniProt O89109); assay: Whole-cell patch-clamp of KCa3.1 currents in 3T3 fibroblasts; assay type: cell-based; conditions: for KCa3.1 blocking effect (in words): concentrations up to 50 µM as in Table 1
T6 construct: KCa3.1 channels in 3T3 fibroblasts; endogenous in cells; host or cells: 3T3-L1 mouse embryonic fibroblasts

hKCa2.3 [4] = molecular target: T3, hKCa2.3; assay: Inside-out single-channel experiments on hKCa2.3; assay type: biochemical
[5] = tested on: inward-rectifying K+ current (Kir) in U251 glioblastoma cells; assay: Whole-cell patch-clamp of native inward-rectifying K+ current in U251 cells; assay type: cell-based, human; conditions: 1 µM, at −100 mV, n = 5
[6] = molecular target: T7, cloned human KCa3.1 channel (Homo sapiens, UniProt O15554); assay: Inside-out patch recordings from hKCa3.1-overexpressing HEK293 cells; assay type: biochemical; conditions: inside-out patches
T7 construct: expressed in transfected cells; gift of Khaled Houamed, University of Chicago

[7] = tested on: porcine coronary artery rings; assay: Isometric myography: endothelium-independent relaxation to sodium nitroprusside; conditions: pre-contracted by 60 mM K+; 13b 0.5 µM, SKA-31 1 µM, alone or combined
Experimental: (§1) Myography on porcine coronary artery rings was performed as described in detail previously, [30]. In brief, left anterior descending arteries or posterior descending arteries were cut into rings (3 mm long) and rings were mounted onto a isometric force transducer (Pioden UF1, Graham Bell House, Canterbury, UK). The organ bath contained a 5 ml Krebs buffer maintained at 37°C and gassed with 95% O2/5% CO2. The composition of the Krebs buffer was as follows (in mM): NaCl 120, NaHCO3 24.5, CaCl2 2.4, KCl 4.7, MgSO4 1.2, KH2PO4 1 and glucose 5.6, pH 7.4. Each ring was passively stretched to an initial tension of 1 gr (10 mN). Changes in force were monitored and recorded on a computer using a Mac Lab System/8e program (AD Instruments Inc, Milford, Ma, USA), and digitalized at a sample rate of 0.5 sec.
(§2) To measure specifically endothelium-derived hyperpolarization-mediated vasorelaxation (EDH), the NO-synthase blocker, Nω-nitro-L-arginine (L-NNA, 300 µM), and the cyclooxygenase blocker, indomethacin (10 µM), were added to the buffer. Preparations were washed three times and were allowed to equilibrate for 40 min. Within this period, the incubation medium was renewed every 20 min. […] Ten min later, bradykinin (1 µM) was added for another 10 min, followed by washout (over at least 10 min). This protocol was repeated (2nd stimulation). Thereafter, we performed a 3rd round of pre-contraction and vasorelaxation, but using the vasospasmic thromboxane analogue U46619 (0.2 µM) as vasocontracting agent. At the end of the experiments, rings were allowed to contract maximally in a KCl (60 mM) buffer for 10 min followed by addition of the compounds. Finally, sodium nitroprusside (10 µM) was added to achieve maximal endothelium-independent vasorelaxation. […]
(§3) For data analysis, we determined absolute increases in force to 5-HT, U46619, or 60 mM KCl. Bradykinin-induced relaxations were determined as % change of pre-contraction to either vasocontracting compound and relative to the fully relaxed state (in the absence of the vasocontracting agent).

[8] = tested on: porcine coronary artery rings; assay: Isometric myography: 5-HT-induced contractions; conditions: 13b 0.5 µM
Experimental: as §1
(§4) To measure specifically endothelium-derived hyperpolarization-mediated vasorelaxation (EDH), the NO-synthase blocker, Nω-nitro-L-arginine (L-NNA, 300 µM), and the cyclooxygenase blocker, indomethacin (10 µM), were added to the buffer. Preparations were washed three times and were allowed to equilibrate for 40 min. Within this period, the incubation medium was renewed every 20 min. […] Ten min later, bradykinin (1 µM) was added for another 10 min, followed by washout (over at least 10 min). This protocol was repeated (2nd stimulation). Thereafter, we performed a 3rd round of pre-contraction and vasorelaxation, but using the vasospasmic thromboxane analogue U46619 (0.2 µM) as vasocontracting agent. At the end of the experiments, rings were allowed to contract maximally in a KCl (60 mM) buffer for 10 min followed by addition of the compounds. Finally, sodium nitroprusside (10 µM) was added to achieve maximal endothelium-independent vasorelaxation.
(§5) DMSO as the vehicle had no vasoactive effect per se on the tissue. Other compounds were dissolved in Milli-Q water.
as §3

[9] = tested on: porcine coronary artery rings; assay: Isometric myography: U46619-induced contractions; conditions: 13b 0.5 µM
Experimental: as §1, §4, §5, §3

[10] = tested on: porcine coronary artery rings; assay: Isometric myography: bradykinin-induced (EDH) relaxation; conditions: 13b 0.5 µM
Experimental: as §1, §4, §5, §3

[11] = tested on: porcine coronary artery rings; assay: Isometric myography: contractions to 60 mM K+; conditions: 13b 0.5 µM, SKA-31 1 µM, alone or combined
Experimental: as §1, §2, §3

hKv1.3 = tested on: T8, hKv1.3; assay: Whole-cell patch-clamp of cloned hKv1.3; assay type: cell-based, human
T8 construct: expressed in transfected cells

[12] = whole-cell, 3T3 fibroblasts, read-out: EC50 of KCa3.1 inhibition
[13] = 1 µM 5-HT, SKA-31 1 µM, alone or combined
[14] = 1 µM bradykinin, SKA-31 1 µM, alone or combined

T4 sequence (P16389 whole entry): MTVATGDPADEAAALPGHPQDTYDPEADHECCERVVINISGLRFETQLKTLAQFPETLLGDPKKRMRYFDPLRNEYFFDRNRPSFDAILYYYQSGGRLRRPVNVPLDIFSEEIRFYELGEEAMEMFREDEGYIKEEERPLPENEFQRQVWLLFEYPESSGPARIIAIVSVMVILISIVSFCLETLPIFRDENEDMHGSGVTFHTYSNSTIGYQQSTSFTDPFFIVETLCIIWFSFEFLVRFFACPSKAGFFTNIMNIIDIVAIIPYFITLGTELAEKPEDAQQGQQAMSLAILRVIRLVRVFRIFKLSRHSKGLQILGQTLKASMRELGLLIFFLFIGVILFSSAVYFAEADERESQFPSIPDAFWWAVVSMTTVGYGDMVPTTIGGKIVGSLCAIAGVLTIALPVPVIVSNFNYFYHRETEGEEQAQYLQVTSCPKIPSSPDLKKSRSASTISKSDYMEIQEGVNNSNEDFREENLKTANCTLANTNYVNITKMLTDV
T3 sequence (Q9UGI6 whole entry): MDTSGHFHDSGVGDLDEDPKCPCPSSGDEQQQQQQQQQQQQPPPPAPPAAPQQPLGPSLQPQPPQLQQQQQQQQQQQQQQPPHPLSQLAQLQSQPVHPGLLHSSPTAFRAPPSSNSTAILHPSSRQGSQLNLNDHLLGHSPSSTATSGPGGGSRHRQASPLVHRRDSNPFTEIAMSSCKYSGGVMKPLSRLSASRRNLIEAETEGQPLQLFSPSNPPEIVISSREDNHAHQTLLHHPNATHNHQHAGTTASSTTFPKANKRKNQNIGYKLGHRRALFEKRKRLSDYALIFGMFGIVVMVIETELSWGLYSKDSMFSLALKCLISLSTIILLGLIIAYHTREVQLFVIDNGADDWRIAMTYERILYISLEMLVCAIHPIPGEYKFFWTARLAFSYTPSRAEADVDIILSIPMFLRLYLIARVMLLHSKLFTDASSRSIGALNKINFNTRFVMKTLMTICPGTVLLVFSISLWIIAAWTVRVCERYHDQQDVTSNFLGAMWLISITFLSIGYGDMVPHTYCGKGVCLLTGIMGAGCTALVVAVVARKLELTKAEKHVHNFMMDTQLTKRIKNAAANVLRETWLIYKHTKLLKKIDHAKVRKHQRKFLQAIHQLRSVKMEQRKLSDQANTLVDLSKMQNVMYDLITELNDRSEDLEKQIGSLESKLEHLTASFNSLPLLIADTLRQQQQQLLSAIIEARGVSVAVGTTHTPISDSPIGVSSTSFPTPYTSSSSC

## O=C(O)/C=C/c1ccc(O)c(O)c1 [Caffeic Acid, (E)-3-(3,4-dihydroxyphenyl)propenoic acid]
hERG channels
  hERG effect (in words): not blocked
hERG; compound 10 µM, read-out: % of control at 10 µM
  activity at 10 µM: 97 ± 6%
hKCa2.3 [1]; COS-7, read-out: % of control at 10 µM
  remaining activity at 10 µM: 108 ± 7%
hKCa2.3 [1]; COS-7, read-out: % of control at 50 µM
  remaining activity at 50 µM: 97 ± 1%
hKCa2.3 [1]; micromolar concentrations
  KCa2.3 blocking effect (in words): no blocking effects
hKv1.2; flufenamic acid and caffeic acid 10 and 50 µM, 13c 1 µM
  hKv1.2 blocking effect (in words): did not block
hKv1.2; hKv1.2, compound 10 µM, read-out: % of control at 10 µM
  remaining activity at 10 µM: 100 ± 2%
hKv1.2; hKv1.2, compound 50 µM, read-out: % of control at 50 µM
  remaining activity at 50 µM: 97 ± 1%
[2]; 50 µM, n = 1
  mixed KCa3.1/KCa2.3 current, % of control: 6%
3T3 fibroblasts; 25 µM
  change of proliferation vs. vehicle-treated controls: −27%
3T3 fibroblasts; 50 µM
  change of proliferation vs. vehicle-treated controls: −56%
KCa1.1
  KCa1.1 effect (in words): no blocking or activating effects
KCa1.1; hKCa1.1, compound 10 µM
  % of control at 10 µM: 103 ± 14%
[3]; read-out: KCa3.1 current blocked, % of control
  remaining activity at 10 µM: 28 ± 10%
[3]; whole-cell, 3T3 fibroblasts
  KCa3.1 blocking effect (in words): Complete inhibition
[3]; [12]
  EC50: 1300 nM and 1000 to 10000 nM

## O=C(OCc1cc(COC(=O)c2ccc(O)c(F)c2)cc(COC(=O)c2ccc(O)c(F)c2)c1)c1ccc(O)c(F)c1 [Compound 13b, [3,5-bis[(3-fluoro-4-hydroxy-benzoyl)oxymethyl]phenyl]methyl 3-fluoro-4-hydroxy-benzoate]
hERG channels
  hERG effect (in words): not blocked; also recorded: did not block
hERG; compound 1 µM, read-out: % of control at 1 µM
  activity at 1 µM: 94 ± 3%
hKCa2.3 [4]; inside-out single channel experiments, read-out: EC50 of hKCa2.3 inhibition
  EC50: 0.241 ± 0.129 nM
hKCa2.3 [4]; inside-out, hKCa2.3
  Hill coefficient: ~1
[5]
  Kir current, % of control: 98±2%
[6]; HEK293, 0.5 µM free Ca2+, read-out: EC50 of hKCa3.1 inhibition
  EC50: 14 nM
[6]; hKCa3.1
  Hill coefficient: ~1
hKCa2.3 [1]; COS-7, hKCa2.3, compound 1 µM, mean ± SEM, n ≥ 3, read-out: % of control at 1 µM
  remaining activity at 1 µM: 4 ± 2%
hKCa2.3 [1]; hKCa2.3 whole-cell
  Hill coefficient: ~1
hKCa2.3 [1]; whole-cell, COS7 cells, 1 µM free Ca2+, read-out: EC50 of hKCa2.3 inhibition
  EC50: 0.36 nM
[7]
  % relaxation to 10 µM SNP: 84±4%
hKv1.2; 100 nM
  inhibition at 0.1 µM: 19%
hKv1.2; hKv1.2, compound 1 µM, read-out: % of control at 1 µM
  remaining activity at 1 µM: 11 ± 2%
hKv1.2; read-out: EC50 of hKv1.2 block
  EC50: 550 ± 10 nM
[8]; [13]
  Δg, 1st stimulation: 0.7 ± 0.1 g
  Δg, 2nd stimulation: 0.7 ± 0.1 g
[8]
  change of amplitude of 5-HT contraction vs. vehicle, 1st stimulation: +74%
  change of amplitude of 5-HT contraction vs. vehicle, 2nd stimulation: +90%
[9]; 0.2 µM U46619, SKA-31 1 µM, alone or combined
  Δg: 2.8 ± 0.2 g
[9]; alone or with SKA-31 1 µM
  change of U46619 contraction vs. vehicle: +29%
[10]; [14]
  % relaxation, 5-HT-precontraction: 24±2%
  % relaxation, U46619-precontraction: −1±1%
[10]
  continued contraction of U46619-precontracted rings with bradykinin: +1 % contraction
[2]; 1 µM 13b
  block of current potentiated by 1 µM SKA-31 (in words): almost fully blocked
[2]; whole-cell, compound 1 µM
  KCa current, % of control: 14±7%
[11]
  Δg, contraction to 60 mM K+: 3.1 ± 0.3 g
3T3 fibroblasts; 0.5 µM, day 3
  change of proliferation vs. vehicle: −23%
3T3 fibroblasts; 2 µM, day 3
  change of proliferation vs. vehicle: –20%
3T3 fibroblasts; cultured 3T3 fibroblasts
  cytotoxicity (in words): not cytotoxic; also recorded: non-toxic
3T3 fibroblasts; day 3, 0.5 and 2 µM
  inhibition (reduction) of cell proliferation: 20%
KCa1.1
  KCa1.1 effect (in words): not blocked
KCa1.1; hKCa1.1, compound 1 µM
  % of control at 1 µM: 103 ± 3%
[3]; KCa3.1 whole-cell current, 3T3 fibroblasts, 1 µM free Ca2+ in pipette, compound 1 µM, mean ± SEM, n ≥3, read-out: % of control at 1 µM
  remaining activity at 1 µM: 4 ± 1%
[3]; KCa3.1 whole-cell, 1 µM SKA-31, read-out: EC50 to suppress the SKA-31-induced current
  EC50: 161 ± 121 nM
[3]; KCa3.1 whole-cell, 3T3 fibroblasts
  Hill coefficient: ~1
[3]; whole-cell, 3T3 fibroblasts
  KCa3.1 blocking effect (in words): Complete inhibition
[3]; [12]
  EC50: 19 nM
hKv1.3; concentration of 10 µM as printed
  hKv1.3 blocking effect (in words): not inhibited; also recorded: did not block
hKv1.3; hKv1.3, compound 1 µM
  % of control at 1 µM: 96.4 ± 0.2%
